This series is described as follows: Human HepG2 cell viability assay in 384 well format. Format: toxicity, cell-based. Also noted: dose 125 nL, time 70.5 hour; concentration not given beside the values. The note with it: HepG2 cells, read-out: Inhibition.

For `CC[C@@H]1N(CC2CCC2)CCC[C@]12CCC(=O)N2Cc1ccncc1`, the cytotoxicity at 70.5 h was -4.74%.
Regarding `COc1ccc(C[C@H]2CN(C(=O)c3ncccn3)CC[C@@H]2OC)cc1`, the cytotoxicity at 70.5 h was -6.01%.
The figure for `O=C(C1CCOCC1)N1CCC2(CCNCC2)C1` is -11.8%; for `O=C1N(Cc2cccc(F)c2)CCC12CCCNC2` (stereo unspecified) it is -13.6%.
With `O=C(C1CCOC1)N1CCC2(CC1)COC2` (stereo unspecified), the cytotoxicity at 70.5 h was -7.79%.
With `CC(C)NC(=O)[C@H]1C[C@@H]2[C@@H](C1)OCCN2Cc1ccncc1`, the cytotoxicity at 70.5 h is -7.54%.
`c1cc(C[C@H]2[C@H](N3CCOCC3)CCN2Cc2ccoc2)ccn1`: the cytotoxicity at 70.5 h is -11.4%.
`c1nc2c(c(C3CCOC3)n1)CCN(Cc1ccoc1)CC2` (stereo unspecified): the cytotoxicity at 70.5 h stood at 7.95%.
In the case of `Cc1cnc(C(=O)N2CCC3(CC2)CC(c2ccccc2)C(=O)N3)cn1` (stereo unspecified), the cytotoxicity at 70.5 h amounted to 8.04%.
For `CNC(=O)c1nc2c(s1)CCN(C(=O)c1ccccc1)CC2` the value was -9.7%; for `CN(C)CCOCC1CN(C(=O)c2cscn2)Cc2ccnn2C1` (stereo unspecified), -8.28%.
For `CS(=O)(=O)N[C@@H]1CN(Cc2ccccc2)C[C@@H]2CCCO[C@@H]21`, the cytotoxicity at 70.5 h is -4.64%.
As to `CC(C)CNC(=O)c1nc2c(s1)CCN(C(=O)c1ccc(Cl)cc1)CC2`, the cytotoxicity at 70.5 h is -3.22%.
For the compound `CCS(=O)(=O)N1CCC2(CC(=O)N(c3cncnc3)C2)C1` (stereo unspecified), the cytotoxicity at 70.5 h is -3.21%.
As to `Cn1cccc1C(=O)NCc1cnc2n1CCN(C(N)=O)CC2`, the cytotoxicity at 70.5 h was -4.35%.
For `Cc1noc(C)c1CN1CCOC2(CCCN(c3ccccn3)C2)C1` (stereo unspecified), the cytotoxicity at 70.5 h was -8.65%.
On to `O=C([C@H]1C[C@H]2OCC[C@H]2N(C(=O)c2ccnnc2)C1)N1CCCCO1`, for which the cytotoxicity at 70.5 h worked out at 1.65%.
The figure for `O=C([C@H]1C[C@H]2OCC[C@H]2N(C(=O)c2cnccn2)C1)N1CCCCO1` is -8.15%; for `Cn1cccc1C(=O)NCc1cnc2n1CCN(C(=O)c1ccoc1)C2` it is -7.47%.
The figure for `Cc1occc1C(=O)N1C[C@@H](C(=O)N2CCCCO2)C[C@H]2OCC[C@H]21` is -7.27%; for `Cn1nnc2c1CCN(C(=O)CC1CC1)C2COCCN1CCCC1` (stereo unspecified) it is 8.05%; for `O=C(c1ccoc1)N1CCO[C@]2(CCC[C@@H]2COCc2ccncc2)C1` it is 1.38%.
Take `c1ccc(CN2CCN3C[C@H](Oc4cccnc4)C[C@H]3C2)nc1`: the cytotoxicity at 70.5 h is -3.66%.
Take `COC[C@H]1CNC(=O)[C@@H]2CCN(Cc3cccc(C)n3)CC[C@H]12`: the cytotoxicity at 70.5 h came to 0.496%.
On to `O=C(c1ccno1)N1CCO[C@]2(CCC[C@@H]2COCc2ccncc2)C1`, for which the cytotoxicity at 70.5 h is -2.51%.
The figure for `Cc1ccsc1C(=O)NCC1COCc2c(C)nnn2C1` (stereo unspecified) is -1.54%; for `Cc1nnn2c1COCC(CNC(=O)c1cnoc1C)C2` (stereo unspecified) it is 0.126%.
Take `CCN1C(=O)C2(CCOCC2)c2cc(NC(=O)c3csnn3)ccc21`: the cytotoxicity at 70.5 h amounted to 8.75%.
For `Cc1cnc(C(=O)N2CCc3ncnc(C)c3CC2)cn1` the value was -3.63%; for `CC(=O)NCC(=O)N1CCc2c(CNc3ncccn3)cncc2C1`, -2.19%; for `O=C1CC[C@]2(CC[C@@H](NCc3ccsc3)CC2)N1Cc1ccccc1`, -3.82%.
The figure for `CCN1CCC2(CCN(Cc3ccc(OC)cc3)CC2)C1=O` is -3.84%; for `CNC(=O)CN1CCCC12CCN(C(=O)c1ccccc1F)CC2` it is -10.4%.
The figure for `O=C1C[C@H]2[C@@H](CCN2C(=O)Cc2ccccc2)N1Cc1cccnc1` is -8.76%; for `CCOC1COC2(CCN(Cc3ccc(F)cc3)CC2)C1` (stereo unspecified) it is -20.1%.
For the compound `CC(=O)N1C(CN2CCCC2)C[C@@H]2CN(C(=O)c3ccoc3)CC[C@@H]21` (stereo partly specified), the cytotoxicity at 70.5 h is -15.6%.
For `CCOC1COC2(CCN(Cc3ccc(C)c(C)c3)CC2)C1` (stereo unspecified), the cytotoxicity at 70.5 h is -11%.
`CCOC1COC2(CCN(Cc3ccc(C)cc3)CC2)C1` (stereo unspecified): the cytotoxicity at 70.5 h was -11.9%.
On to `COCCC(=O)N1C[C@H]2CN(Cc3cccnc3)C(=O)[C@H]2C1`, for which the cytotoxicity at 70.5 h was determined as 4.13%.
For `Cn1cc(CN2CCC[C@]3(C(=O)O)CN(c4ncccn4)C[C@@H]3C2)cn1`, the cytotoxicity at 70.5 h is -12%.
`CCc1ncnc2c1CCN(Cc1cccs1)CC2`: the cytotoxicity at 70.5 h is -7.19%.
`c1csc(CN2CCc3ncnc(C4CCOC4)c3CC2)n1` (stereo unspecified): the cytotoxicity at 70.5 h was -4.88%.
`CO[C@H]1CCN(c2nnc(C)s2)C[C@@H]1Cc1ccccc1`: the cytotoxicity at 70.5 h is -4.37%.
Turning to `O=C(N1CCCC1)N1CCC[C@]2(C[C@@H](OCc3ccncc3)CO2)C1`, the cytotoxicity at 70.5 h was -10.6%.
For `COc1ccc(C[C@H]2CN(c3nnc(C)s3)CC[C@H]2OC)cc1`, the cytotoxicity at 70.5 h was -10.2%.
For the compound `O=C([C@H]1CN(Cc2ccc(F)cc2)C[C@H]2OCC[C@@H]12)N1CCCO1`, the cytotoxicity at 70.5 h was -7.77%.
Regarding `CNC(=O)[C@H]1C[C@H]2OCC[C@H]2N(CC2CCOCC2)C1`, the cytotoxicity at 70.5 h is -8.61%.
As to `CO[C@H]1CCN(c2nnc(C)s2)C[C@@H]1Cc1cccc(C)c1`, the cytotoxicity at 70.5 h was determined as 7.81%.
On to `O=C(N[C@@H]1CN(c2ncccn2)C[C@@H]2CCCO[C@@H]21)c1ccnnc1`, for which the cytotoxicity at 70.5 h is -6.03%.
With `O=C(NCc1cn2c(n1)CN(Cc1nccs1)CC2)C1CCC1`, the cytotoxicity at 70.5 h was -6.31%.
Turning to `N#Cc1cccc(CN2C[C@H](OCC3CCOCC3)[C@H]3COC[C@H]32)c1`, the cytotoxicity at 70.5 h was -5.67%.
As for `O=C([C@H]1C[C@H]2OCC[C@H]2N(C(=O)c2ccccn2)C1)N1CCCCO1`, the cytotoxicity at 70.5 h was -6.44%.
As for `COCC(=O)N1CCc2c(nnn2C)C1COCCN1CCCC1` (stereo unspecified), the cytotoxicity at 70.5 h was -2.45%.
For `CC(C)N(C)Cc1ncn2c1CN(S(=O)(=O)c1cccs1)CCC2` the value was 13%; for `CS(=O)(=O)NC[C@@H]1OC[C@H]2CN(C(=O)c3ccccn3)CC[C@H]21`, -3.81%; for `O=C(CC1CC1)N[C@@H]1CN(Cc2ccco2)C[C@@H]2CCCO[C@@H]21`, -2.26%.
Regarding `CNC(=O)[C@@H]1CCO[C@@H]2CCN(C3CCOCC3)C[C@@H]21`, the cytotoxicity at 70.5 h is -0.345%.
Turning to `Cc1cc(CN2CC[C@H]3OCC[C@@]3(C(=O)NCc3ccco3)C2)no1`, the cytotoxicity at 70.5 h came to 0.284%.
For `O=C(c1ccc[nH]1)N1CCO[C@]2(CCC[C@@H]2COc2cccnc2)C1`, the cytotoxicity at 70.5 h was -2.32%.
In the case of `CCS(=O)(=O)N1CCC2(CC1)CC(COC)N(c1ncccn1)C2` (stereo unspecified), the cytotoxicity at 70.5 h was determined as 2.68%.
Take `O=C(c1ccoc1)N1CCO[C@]2(CCC[C@H]2COCc2cccnc2)C1`: the cytotoxicity at 70.5 h is -0.748%.
`O=S(=O)(c1cccs1)N1CCCn2cnc(CO)c2C1`: the cytotoxicity at 70.5 h is -1.4%.
On to `Cc1ccc(CN2C[C@@H]3CCCO[C@@H]3[C@H](NC(=O)CC3CC3)C2)s1`, for which the cytotoxicity at 70.5 h is -1.25%.
For `COCC(=O)N1CCC2(CC1)CC(COC)N(c1ncccn1)C2` (stereo unspecified), the cytotoxicity at 70.5 h was -5.32%.
For the compound `Cc1nc(CN2C[C@@H]3CCCO[C@@H]3[C@H](NC(=O)CC3CC3)C2)cs1`, the cytotoxicity at 70.5 h is -0.515%.
As to `O=C(NC1CCC1)[C@@H]1CCO[C@@H]2CCN(C3CCCC3)C[C@@H]21`, the cytotoxicity at 70.5 h stood at 1.69%.
Regarding `O=C(CC1CC1)N[C@@H]1CN(Cc2ccc(F)cc2)C[C@@H]2CCCO[C@@H]21`, the cytotoxicity at 70.5 h was -3.12%.
`CN1CCN(C(=O)Cc2ccsc2)Cc2cccnc21`: the cytotoxicity at 70.5 h is -1.77%.
For the compound `Cn1cc(N2C[C@@H]3CN(Cc4ccoc4)C[C@@H]3C2=O)cn1`, the cytotoxicity at 70.5 h was -2.46%.
As for `COCC1CN(Cc2ccc(C)o2)Cc2nnn(C)c21` (stereo unspecified), the cytotoxicity at 70.5 h was -0.755%.
Regarding `Cc1occc1C(=O)N1CCC2(CCCN(Cc3nccs3)C2)C1` (stereo unspecified), the cytotoxicity at 70.5 h stood at 1.62%.
As for `Cn1cccc1CN1CCC2(CC1)CN(c1ncccn1)CCO2`, the cytotoxicity at 70.5 h came out at 1.85%.
For `CN(C)C(=O)CO[C@H]1CN(Cc2ccccc2)[C@@H]2CCCO[C@H]12` the value was 34.3%; for `COc1ccc(CN2C[C@H](OCC3CCOCC3)[C@H]3COC[C@H]32)cc1`, -9.69%; for `CC[C@@H]1N(C)CCC[C@]12CCC(=O)N2Cc1ccncc1`, 0.423%.
The figure for `COCC1CN(Cc2cc(C)on2)Cc2cn(CC3CCCC3)nc21` (stereo unspecified) is -8.99%.
Take `c1cc(CN2CCc3ncnc(C4CCOC4)c3CC2)ccn1` (stereo unspecified): the cytotoxicity at 70.5 h was -6.5%.
The figure for `O=C(NCc1cn2c(n1)CN(Cc1ccncc1)CC2)C1CCC1` is 8.23%; for `O=C(NCc1cn2c(n1)CN(Cc1cccnc1)CC2)C1CCC1` it is 7.24%; for `c1cc(CN2CCCC3(COCCN(Cc4c[nH]nn4)C3)C2)cs1` (stereo unspecified) it is -2.64%.
As for `O=C(NCc1cn2c(n1)CN(Cc1ccccn1)CC2)C1CCC1`, the cytotoxicity at 70.5 h is -10%.
Regarding `O=C(N[C@@H]1CN(c2ncccn2)C[C@@H]2CCCO[C@@H]21)c1ccncc1`, the cytotoxicity at 70.5 h is -3.78%.
In the case of `Fc1ccc(CN2CCCC3(COCCN(Cc4c[nH]nn4)C3)C2)cc1` (stereo unspecified), the cytotoxicity at 70.5 h is -5.93%.
As to `CS(=O)(=O)N[C@@H]1CN(Cc2ccncc2)C[C@@H]2CCCO[C@@H]21`, the cytotoxicity at 70.5 h is -9.37%.
For `CN(C)CCN1CCOCC2(CCCN(C(=O)Cc3ccccc3)C2)C1` (stereo unspecified) the value was 10.9%; for `Cn1ccnc1CN1CCN2C[C@H](Oc3ccccc3)C[C@H]2C1`, 11.2%.
For `O=C(NCc1ccncc1)c1nc2c(o1)CN(C(=O)c1cccnc1)C2` the value was -0.144%.
The figure for `Cn1ccnc1CN1CCN2C[C@H](OCc3ccccc3)C[C@H]2C1` is -1.75%.
Regarding `Cn1cc(CN2CCc3c(COCC4CC4)cncc3C2)cn1`, the cytotoxicity at 70.5 h is -1.91%.
The figure for `Fc1ccc(CN2CCC3(CC2)CN(c2ccccn2)CCO3)cc1` is 2.69%; for `COCC1CC2(CCN(Cc3cccnc3)CC2)CN1c1ncccn1` (stereo unspecified) it is -0.169%.
